Data on 10 molecules can be found in PubChem BioAssay (NCI).

Where “and” joins values, the source holds several entries; their conditions need not be identical. Equal entries are not always repeated.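 1) Cells in 96-well plates. 2) Compound, 48 h, 5 concentrations. 3) Linear interpolation between surrounding doses. 4) Unreached endpoint = highest concentration. GI50 marks 50% less growth. The concentration for full growth arrest is given as TGI.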

Test systems include HT29 colon; HCT-15 colon; OVCAR-5 ovarian; A498 renal; RXF 393 renal; T-47D breast; K-562 leukemia; NCI-H460 lung.
Common to all, as to assay: NCI tumour cell line growth inhibition, 48 h

In the case of `CN(Cc1ccc(Cl)cc1)c1ccc(CO)c(Cl)c1`, the GI50 with HT29 colon was 6.7 µM; in the assay on HCT-15 colon, 5.42 µM; in the assay with OVCAR-5 ovarian it was 0.644 µM; in the assay with A498 renal, 0.0464 µM; with RXF 393 renal, 3.57 µM; in the assay on T-47D breast, 0.764 µM. The GI50 in the assay on K-562 leukemia is 3.79 µM; in the assay on NCI-H460 lung, 1.35 µM. For the same molecule, the TGI was 22.6 µM in the assay with HT29 colon; 39.5 µM in the assay with HCT-15 colon; 4.67 µM with OVCAR-5 ovarian; 0.179 µM with A498 renal; 16.8 µM in the assay with RXF 393 renal; 5.4 µM in the assay with T-47D breast. The TGI with K-562 leukemia is over 65.7 µM; in the assay with NCI-H460 lung it was 11.1 µM.

Turning to `CCC1C(=O)OCc2c1cc1n(c2=O)Cc2cc3ccccc3nc2-1` (stereo unspecified), the TGI in the assay with HT29 colon was over 100 µM; with HCT-15 colon, over 100 µM; with OVCAR-5 ovarian, over 100 µM; in the assay on A498 renal, 49 µM; with RXF 393 renal, over 94.9 µM; in the assay with T-47D breast, over 90.2 µM. The values for the TGI in the assay on K-562 leukemia and in the assay on NCI-H460 lung were over 100 µM and 64.4 µM, respectively.

As to `COc1cc(C(=O)N2N=C(c3ccc(S(C)(=O)=O)cc3)CC2c2ccco2)cc(OC)c1OC` (stereo unspecified), the GI50 was 3.17 µM with HT29 colon; 4.13 µM in the assay on HCT-15 colon; over 80.2 µM in the assay on OVCAR-5 ovarian; 5.15 µM in the assay on A498 renal; 4.74 µM in the assay on RXF 393 renal; 3.79 µM in the assay on T-47D breast. For the same molecule, the GI50 in the assay on K-562 leukemia was 4.81 µM; with NCI-H460 lung, 3.51 µM. Also, the TGI with HT29 colon was over 100 µM; with HCT-15 colon, over 100 µM; in the assay with OVCAR-5 ovarian, over 100 µM; in the assay on A498 renal, over 100 µM; in the assay on RXF 393 renal, 56 µM; in the assay on T-47D breast it was over 100 µM. The TGI in the assay on K-562 leukemia and with NCI-H460 lung was over 100 µM in each case.

`CCOC(=O)/C(=N\OC)C(O)C(F)(F)F` (stereo unspecified): the TGI with HT29 colon, with HCT-15 colon, with OVCAR-5 ovarian, with A498 renal, in the assay with RXF 393 renal and in the assay on T-47D breast was over 100 µM each time. The same molecule came in with a TGI with K-562 leukemia of over 100 µM.

For `COc1cc(-n2cc(-c3ccc(F)cc3)nc2SCc2ccccc2)cc(OC)c1OC`, the GI50 was 13.4 µM with HT29 colon; over 100 µM in the assay with HCT-15 colon; over 100 µM in the assay with OVCAR-5 ovarian; 37.4 µM in the assay on A498 renal; 19.4 µM in the assay on RXF 393 renal; 9.57 µM with T-47D breast. Besides, the GI50 was 8.1 µM in the assay with K-562 leukemia and 77.2 µM in the assay on NCI-H460 lung. Moreover, the TGI in the assay on HT29 colon, in the assay on HCT-15 colon, in the assay on OVCAR-5 ovarian, in the assay on A498 renal, in the assay with RXF 393 renal and in the assay on T-47D breast was over 100 µM throughout. Moreover, the TGI in the assay on K-562 leukemia and with NCI-H460 lung was over 100 µM throughout.

`COc1ccc2c(c1O)C13CCN(C)C(C2)C1CCC1(C3)OCCO1` (stereo unspecified): the TGI with HT29 colon, in the assay with HCT-15 colon, with OVCAR-5 ovarian, with RXF 393 renal, in the assay with T-47D breast and in the assay with NCI-H460 lung was over 100 µM each time.

On to `COC(=O)C1=C(C)NC(C)=C(C(=O)OC)C1/C=C(\Cl)c1ccc(Cl)c(Cl)c1`, for which the GI50 in the assay on HT29 colon was 4.51 µM; with HCT-15 colon it was 12.3 µM; in the assay on OVCAR-5 ovarian, 16.8 µM; in the assay on A498 renal it was 11.4 µM; with RXF 393 renal, 13.4 µM; with T-47D breast, 20.2 µM. For the same molecule, the GI50 in the assay with K-562 leukemia is 10.6 µM; with NCI-H460 lung, 6.48 µM. In addition, the TGI in the assay with HT29 colon amounted to 18.5 µM; in the assay on HCT-15 colon it was 26.9 µM; in the assay with OVCAR-5 ovarian it was 30.4 µM; in the assay with A498 renal it was 24.1 µM; in the assay on RXF 393 renal, 27.2 µM; with T-47D breast it was 50.1 µM. Moreover, the figures for the TGI with K-562 leukemia and in the assay with NCI-H460 lung were 40.3 µM and 23.4 µM, respectively.

`S=C(N/N=C(/c1ccccc1)c1ccccn1)N1CCCCC1`: the GI50 was 0.0345 µM in the assay with HT29 colon; under 0.001 µM in the assay with HCT-15 colon; under 0.001 µM in the assay with OVCAR-5 ovarian; 0.0815 µM with A498 renal; 0.0129 µM in the assay with RXF 393 renal; under 0.001 µM in the assay with T-47D breast. Also, the GI50 with K-562 leukemia was under 0.001 µM; with NCI-H460 lung, 0.00149 µM. Moreover, the TGI was 2.17 µM and 2.44 µM in the assay with HT29 colon; 2.22 µM and 3.94 µM in the assay with HCT-15 colon; 2.49 µM and 2.11 µM in the assay on OVCAR-5 ovarian; 1.43 µM and 2.37 µM with A498 renal; 1.43 µM and 3.38 µM in the assay with RXF 393 renal; 1.01 µM and 2.9 µM with T-47D breast. The TGI in the assay with K-562 leukemia is under 0.001 µM; with NCI-H460 lung, 2.31 µM and 1.52 µM.

Consider `CC(=O)CCc1ccc(OC2OC(COC(=O)c3cc(O)c(O)c(O)c3)C(O)C(O)C2OC(=O)/C=C/c2ccccc2)cc1` (stereo unspecified), for which the GI50 is 29.6 µM in the assay with HT29 colon; 26.2 µM with HCT-15 colon; 15.6 µM in the assay on OVCAR-5 ovarian; 23.2 µM in the assay on A498 renal; 19 µM with RXF 393 renal; 26.1 µM with T-47D breast. Also, the GI50 with K-562 leukemia was 22.6 µM; with NCI-H460 lung it was 21 µM. Moreover, the TGI with HT29 colon was 82.2 µM; in the assay on HCT-15 colon it was over 100 µM; in the assay on OVCAR-5 ovarian it was 32.1 µM; with A498 renal, 48 µM; in the assay on RXF 393 renal, 47.2 µM; in the assay with T-47D breast, over 100 µM. Moreover, the TGI in the assay with K-562 leukemia was 65.5 µM; with NCI-H460 lung it was 43.5 µM.

For the molecule `COc1ccc(-n2cc(-c3cc(OC)c(OC)c(OC)c3)nc2SCc2ccccc2)cc1`, the GI50 in the assay on HT29 colon is 35.6 µM; in the assay on HCT-15 colon, over 100 µM; with OVCAR-5 ovarian it was over 100 µM; with A498 renal, over 100 µM; with T-47D breast it was 7.89 µM; with K-562 leukemia, 9.43 µM. Besides, in the assay on NCI-H460 lung, the GI50 is 52.6 µM. Besides, the TGI in the assay on HT29 colon, with HCT-15 colon, with OVCAR-5 ovarian, in the assay with A498 renal, with T-47D breast and with K-562 leukemia was over 100 µM each time. Further, the TGI with NCI-H460 lung is over 100 µM.
